{
  "source": "patent US7485626B2",
  "about": "“Combinations of enzyme inhibitor-containing preparations and the use thereof” (IMTM GmbH, priority 2000, dated 2009)",
  "assay_type_in_all_cases": "cell-based",
  "key": {"[1]": {"system": "human peripheric T lymphocytes", "experiment": "DNA synthesis of human T lymphocytes (3[H]-thymidine incorporation)", "settings": "72 h incubation; for DNA synthesis of human peripheric T lymphocytes: simultaneous administration of I49 (DP IV inhibitor) and Actinonin (APN inhibitor), FIG. 1", "description": "The T cells were incubated for 72 h in the presence of said inhibitors and subsequently, the DNA synthesis rate was determined via a measurement of the ^3[H]-thymidin incorporation, as was described by Reinhold et al. [D. Reinhold et al.: “Inhibitors of dipeptidyl peptidase IV induce secretion of transforming growth factor β1 in PWM-stimulated PBMNC and T cells”, Immunology 1997, 91, 354-360].\nHuman peripheric T cells were incubated over 3 days with the concentrations of the inhibitors shown. Subsequently, ^3[H]-methyl thymidine was added to the culture medium, and the amount of ^3[H]-thymidine inserted into the DNA was measured after further 6 hours.\nThe T cells were incubated for 72 h in the presence of said inhibitors, and the DNA synthesis rate was determined subsequently by the measurement of the ^3[H]-thymidine incorporation, as was described by Reinhold et al. [D. Reinhold et al.: “Inhibitors of dipeptidyl peptidase IV induce secretion of transforming growth factor β1 in PWM-stimulated PBMNC and T cells”, Immunology 1997, 91, 354-360].\nFIG. 3 show a the synergistic and dose-dependent effect of inhibitors of DP IV (I49) and of prolyl oligopeptidase (Boc-Ala-Thia) on the DNA synthesis of human peripheric T lymphocytes. Human T cells were incubated for three days with the concentrations of inhibitors mentioned above. Subsequently, ^3[H]-methyl thymidine was added to the culture medium, and the amount of ^3[H]-thymidine incorporated into the DNA was measured after further 6 hours.\nHuman T cells were incubated for three days with the concentrations of inhibitors mentioned above. Subsequently, ^3[H]-methyl thymidine was added to the culture medium, and the amount of ^3[H]-thymidine incorporated into the DNA was measured after further 6 hours."}, "[2]": {"system": "human peripheric mononuclear cells (MNZ)", "experiment": "DNA synthesis of human peripheric mononuclear cells (3[H]-thymidine incorporation)", "settings": "72 h incubation", "description": "The MNZ were incubated for 72 h in the presence of said inhibitors, and the DNA synthesis rate was determined subsequently by the measurement of the ^3[H]-thymidine incorporation, as was described by Reinhold et al. [D. Reinhold et al.: “Inhibitors of dipeptidyl peptidase IV induce secretion of transforming growth factor β1 in PWM-stimulated PBMNC and T cells”, Immunology 1997, 91, 354-360].\nHuman MNZ were incubated for three days with the concentrations of inhibitors mentioned above. Subsequently, ^3[H]-methyl thymidine was added to the culture medium, and the amount of ^3[H]-thymidine incorporated into the DNA was measured after further 6 hours."}, "[3]": {"system": "human peripheric mononuclear cells (MNZ)", "experiment": "Proliferation of PHA-activated human mononuclear cells (WST-1 cell proliferation assay)", "settings": "72 h; for Proliferation of human peripheric mononuclear cells (MNZ), number of metabolically active cells: single and simultaneous administration of I49 and Actinonin, PHA, FIG. 7; for Proliferation of PHA-activated human mononuclear cells (MNZ), number of metabolically active cells: single or simultaneous administration of I49 and Apstatin (X-Pro-aminopeptidase inhibitor), FIG. 10", "description": "FIG. 7: The MNZ were incubated for a time period of 72 h without addition (control), with an addition of the mitogenic lectin phytohemagglutinin (PHA), and with the addition of PHA and the inhibitors mentioned above, respectively. Subsequently, the number amount of metabolically active cells was determined by using the commercially available WST-1 cell proliferation assay (Takara Inc.) in accordance with the provisions of the manufacturer.\nFIG. 10: The mononuclear cells (MNZ) were incubated for a time period of 72 h in the presence of the inhibitors mentioned above single and in combination. Subsequently, the number of metabolically active cells was determined by using the commercially available WST-1 cell proliferation assay (Takara Inc.) in accordance with the provisions of the manufacturer."}, "[4]": {"system": "human T cell line KARPAS-299", "experiment": "Proliferation of KARPAS-299 cells (WST-1 cell proliferation assay)", "settings": "single and simultaneous administration of I49 and APN inhibitors (Actinonin and Probestin); FIG. 8", "description": "FIG. 8: The KARPAS-299 cells were incubated without addition (control) and in the presence of single inhibitors mentioned above as well as in the presence of combinations thereof, respectively. Subsequently, the number of metabolically active cells was determined by using the commercially available WST-1 cell proliferation assay (Takara Inc.) in accordance with the provisions of the manufacturer."}, "[5]": {"system": "activated human peripheric T cells", "experiment": "Proliferation of activated human peripheric T cells (WST-1 cell proliferation assay)", "settings": "single or simultaneous administration of I49 and APN inhibitors (Actinonin and Probestin); activated with phytohemagglutinine and phorbol-12-myristate-13-acetate; 72 h; FIG. 9", "description": "FIG. 9: The T cells, with the exception of the untreated control, were activated by an addition of phytohemagglutinine and phorbol-12-myristate-13-acetate to the culture medium and were incubated for a time period of 72 h in the presence of the above-mentioned inhibitors single and in combination. Subsequently, the number of metabolically active cells was determined by using the commercially available WST-1 cell proliferation assay (Takara Inc.) in accordance with the provisions of the manufacturer."}, "[6]": {"settings": "simultaneous administration of I49 (DP IV inhibitor) and actinonine (APN inhibitor), FIG. 2"}, "[7]": {"settings": "simultaneous administration of I49 (DP IV inhibitor) and Boc-Ala-thiazolidid (prolyl oligopeptidase inhibitor), FIG. 3"}, "[8]": {"settings": "simultaneous administration of I49 (DP IV inhibitor) and Boc-Ala-Thiazolidid (prolyl oligopeptidase inhibitor), FIG. 4"}, "[9]": {"settings": "simultaneous administration of I49 (DP IV inhibitor) and Captopril (ACE inhibitor), FIG. 5"}, "[10]": {"settings": "simultaneous administration of I49 (DP IV inhibitor) and Captopril (ACE inhibitor), FIG. 6"}},
  "data": [
    {"smiles": "CCCCC[C@H](CC(=O)NO)C(=O)N[C@H](C(=O)N1CCC[C@H]1CO)C(C)C", "note": "[Actinonin]", "values": [
      {"measurement": "DNA synthesis of human peripheric T lymphocytes", "setting": "[1]", "value": "inhibited in a superadditive manner"},
      {"measurement": "DNA synthesis of human peripheric mononuclear cells (MNZ)", "setting": "[2]; [6]", "value": "inhibited in a superadditive manner"},
      {"measurement": "Proliferation of human peripheric mononuclear cells (MNZ), number of metabolically active cells", "setting": "[3]", "value": "Inhibition of the Proliferation"},
      {"measurement": "Proliferation of the human T cell line KARPAS-299, number of metabolically active cells", "setting": "[4]", "value": "Inhibition of the Proliferation"},
      {"measurement": "Proliferation of activated human peripheric T cells, number of metabolically active cells", "setting": "[5]", "value": "Inhibition of the Proliferation"}
    ]},
    {"smiles": "C[C@H](NC(=O)[C@@H]1CCCN1C(=O)[C@@H]1CCCN1C(=O)[C@@H](O)[C@H](N)Cc1ccccc1)C(N)=O", "note": "[Apstatin]", "values": [
      {"measurement": "Proliferation of PHA-activated human mononuclear cells (MNZ), number of metabolically active cells", "setting": "[3]", "value": "Inhibition of the Proliferation"}
    ]},
    {"smiles": "CC(NC(=O)OC(C)(C)C)C(=O)N1CCSC1", "note": "(stereo not drawn) [Boc-Ala-thiazolidid]", "values": [
      {"measurement": "DNA synthesis of human T lymphocytes", "setting": "[1]; [7]", "value": "inhibited in a superadditive manner"},
      {"measurement": "DNA synthesis of human peripheric mononuclear cells (MNZ)", "setting": "[2]; [8]", "value": "inhibited in a superadditive manner"}
    ]},
    {"smiles": "C[C@H](CS)C(=O)N1CCC[C@H]1C(=O)O", "note": "[Captopril]", "values": [
      {"measurement": "DNA synthesis of human T lymphocytes", "setting": "[1]; [9]", "value": "inhibited in a superadditive manner"},
      {"measurement": "DNA synthesis of human peripheric mononuclear cells (MNZ)", "setting": "[2]; [10]", "value": "inhibited in a superadditive manner"}
    ]},
    {"smiles": "NC(CCCCNC(=O)OCc1ccc([N+](=O)[O-])cc1)C(=O)N1CCSC1", "note": "(stereo not shown) [I49, Lys[Z(NO2)]-thiazolidid]", "values": [
      {"measurement": "DNA synthesis of human peripheric T lymphocytes", "setting": "[1]", "value": "inhibited in a superadditive manner"},
      {"measurement": "DNA synthesis of human T lymphocytes", "setting": "[1]; [7]", "value": "inhibited in a superadditive manner"},
      {"measurement": "DNA synthesis of human T lymphocytes", "setting": "[1]; [9]", "value": "inhibited in a superadditive manner"},
      {"measurement": "DNA synthesis of human peripheric mononuclear cells (MNZ)", "setting": "[2]; [8]", "value": "inhibited in a superadditive manner"},
      {"measurement": "DNA synthesis of human peripheric mononuclear cells (MNZ)", "setting": "[2]; [10]", "value": "inhibited in a superadditive manner"},
      {"measurement": "DNA synthesis of human peripheric mononuclear cells (MNZ)", "setting": "[2]; [6]", "value": "inhibited in a superadditive manner"},
      {"measurement": "Proliferation of human peripheric mononuclear cells (MNZ), number of metabolically active cells", "setting": "[3]", "value": "Inhibition of the Proliferation"},
      {"measurement": "Proliferation of PHA-activated human mononuclear cells (MNZ), number of metabolically active cells", "setting": "[3]", "value": "Inhibition of the Proliferation"},
      {"measurement": "Proliferation of the human T cell line KARPAS-299, number of metabolically active cells", "setting": "[4]", "value": "Inhibition of the Proliferation"},
      {"measurement": "Proliferation of activated human peripheric T cells, number of metabolically active cells", "setting": "[5]", "value": "Inhibition of the Proliferation"}
    ]},
    {"smiles": "CC(C)C[C@H](NC(=O)[C@@H](O)[C@H](N)Cc1ccccc1)C(=O)N1CCC[C@H]1C(=O)N1CCC[C@H]1C(=O)O", "note": "[Probestin]", "values": [
      {"measurement": "Proliferation of the human T cell line KARPAS-299, number of metabolically active cells", "setting": "[4]", "value": "Inhibition of the Proliferation"},
      {"measurement": "Proliferation of activated human peripheric T cells, number of metabolically active cells", "setting": "[5]", "value": "Inhibition of the Proliferation"}
    ]}
  ]
}
